Measurements taken from patent US11078193B2 (priority 2014, dated 2021).

Legend:
HBV = assay: anti HBV activity, HepG2.117 inducibly HBV producing cell line (Tet-off), intracellular HBV DNA by realtime PCR; type: cell-based; details: Hepatitis B virus, 72 h, HepG2.117 cells, 3 days of treatment
[1] = Cytotoxicity, HepG2 cells, Resazurin assay; type: cell-based; details: human

Row | Structure (SMILES) | EC50 (HBV) [nM] | CC50 at 4 days [1] [µM]
1 | Cn1cc(S(=O)(=O)NC2(C)CC(F)(F)C2)c(F)c1C(=O)Nc1ccnc(F)c1 [Compound 133, 4-[(3,3-difluoro-1-methyl-cyclobutyl)sulfamoyl]-3-fluoro-N-(2-fluoro-4-pyridyl)-1-methyl-pyrrole-2-carboxamide] | 50 | > 25
2 | C[C@@H](NS(=O)(=O)c1cn(C)c(C(=O)Nc2ccnc(C(C)(F)F)c2)c1Cl)C(F)(F)F [Compound 182, 3-chloro-N-[2-(1,1-difluoroethyl)-4-pyridyl]-1-methyl-4-[[(1R)-2,2,2-trifluoro-1-methyl-ethyl]sulfamoyl]pyrrole-2-carboxamide] | 1300 | > 25
3 | Cc1cc(NC(=O)c2c(Cl)c(S(=O)(=O)N[C@H](C)C(C)(F)F)cn2C)cc(Cl)n1 [Compound 149, 3-chloro-N-(2-chloro-6-methyl-4-pyridyl)-4-[[(1R)-2,2-difluoro-1-methyl-propyl]sulfamoyl]-1-methyl-pyrrole-2-carboxamide] | 60 | > 25
4 | C[C@@H](NS(=O)(=O)c1cn(C)c(C(=O)Nc2cc(C#N)ccn2)c1Cl)C(F)(F)F [Compound 183, 3-chloro-N-(4-cyano-2-pyridyl)-1-methyl-4-[[(1R)-2,2,2-trifluoro-1-methyl-ethyl]sulfamoyl]pyrrole-2-carboxamide] | 1400 | > 25
5 | Cc1c(S(=O)(=O)N[C@H](C)C(F)(F)F)c(F)c(C(=O)Nc2ccnc(C#N)c2)n1C [Compound 71, N-(2-cyano-4-pyridyl)-3-fluoro-1,5-dimethyl-4-[[(1R)-2,2,2-trifluoro-1-methyl-ethyl]sulfamoyl]pyrrole-2-carboxamide] | 20 | > 25
6 | C[C@@H](NS(=O)(=O)c1cn(C)c(C(=O)Nc2ccnc(C#N)c2F)c1Cl)C(C)(F)F [Compound 151, 3-chloro-N-(2-cyano-3-fluoro-4-pyridyl)-4-[[(1R)-2,2-difluoro-1-methyl-propyl]sulfamoyl]-1-methyl-pyrrole-2-carboxamide] | 30 | > 25
7 | C[C@@H](NS(=O)(=O)c1cn(C)c(C(=O)Nc2cnc(F)c(F)c2)c1Cl)C(F)(F)F [Compound 57, 3-chloro-N-(5,6-difluoro-3-pyridyl)-1-methyl-4-[[(1R)-2,2,2-trifluoro-1-methyl-ethyl]sulfamoyl]pyrrole-2-carboxamide] | 60 | > 25
8 | Cn1cc(S(=O)(=O)NC2(C(F)(F)F)CCC2)c(F)c1C(=O)Nc1cc(Cl)nc(C#N)c1 [Compound 121, N-(2-chloro-6-cyano-4-pyridyl)-3-fluoro-1-methyl-4-[[1-(trifluoromethyl)cyclobutyl]sulfamoyl]pyrrole-2-carboxamide] | 40 | > 25
9 | Cc1cc(NC(=O)c2c(F)c(S(=O)(=O)NC3(C(F)(F)F)CCC3)cn2C)cc(C(F)F)n1 [Compound 173, N-[2-(difluoromethyl)-6-methyl-4-pyridyl]-3-fluoro-1-methyl-4-[[1-(trifluoromethyl)cyclobutyl]sulfamoyl]pyrrole-2-carboxamide] | 20 | > 25
10 | Cn1cc(S(=O)(=O)NC2(C(F)(F)F)CCC2)c(F)c1C(=O)Nc1ccnc(Cl)c1 [Compound 122, N-(2-chloro-4-pyridyl)-3-fluoro-1-methyl-4-[[1-(trifluoromethyl)cyclobutyl]sulfamoyl]pyrrole-2-carboxamide] | 10 | > 25
11 | C[C@@H](NS(=O)(=O)c1cn(C)c(C(=O)Nc2ccnc(Cl)c2F)c1Cl)C(C)(F)F [Compound 107, 3-chloro-N-(2-chloro-3-fluoro-4-pyridyl)-4-[[(1R)-2,2-difluoro-1-methyl-propyl]sulfamoyl]-1-methyl-pyrrole-2-carboxamide] | 20 | > 25
12 | Cc1cc(NC(=O)c2c(Cl)c(S(=O)(=O)N[C@H](C)C(F)(F)F)cn2C)cc(C#N)n1 [Compound 36, 3-chloro-N-(2-cyano-6-methyl-4-pyridyl)-1-methyl-4-[[(1R)-2,2,2-trifluoro-1-methyl-ethyl]sulfamoyl]pyrrole-2-carboxamide] | 150 | > 25
13 | Cc1cc(NC(=O)c2c(Cl)c(S(=O)(=O)N[C@H](C)C(F)(F)F)cn2C)cc(Cl)n1 [Compound 141, 3-chloro-N-(2-chloro-6-methyl-4-pyridyl)-1-methyl-4-[[(1R)-2,2,2-trifluoro-1-methyl-ethyl]sulfamoyl]pyrrole-2-carboxamide] | 40 | > 25
14 | Cn1cc(S(=O)(=O)NC2(C(F)(F)F)CCC2)c(F)c1C(=O)Nc1ccnc(C(F)F)c1F [Compound 165, N-[2-(difluoromethyl)-3-fluoro-4-pyridyl]-3-fluoro-1-methyl-4-[[1-(trifluoromethyl)cyclobutyl]sulfamoyl]pyrrole-2-carboxamide] | 3 | > 25
15 | Cn1cc(S(=O)(=O)NC2(C(F)(F)F)CCC2)c(F)c1C(=O)Nc1ccnc(F)c1 [Compound 169, 3-fluoro-N-(2-fluoro-4-pyridyl)-1-methyl-4-[[1-(trifluoromethyl)cyclobutyl]sulfamoyl]pyrrole-2-carboxamide] | 30 | > 25
16 | Cn1cc(S(=O)(=O)NC2(C)CC(F)(F)C2)c(F)c1C(=O)Nc1ccnc(Cl)c1 [Compound 54, N-(2-chloro-4-pyridyl)-4-[(3,3-difluoro-1-methyl-cyclobutyl)sulfamoyl]-3-fluoro-1-methyl-pyrrole-2-carboxamide] | 20 | > 25
17 | Cn1cc(S(=O)(=O)N[C@H]2C[C@@H](O)C2)c(Cl)c1C(=O)Nc1ccnc(Cl)c1 [Compound 93, 3-chloro-N-(2-chloro-4-pyridyl)-4-[(3-hydroxycyclobutyl)sulfamoyl]-1-methyl-pyrrole-2-carboxamide] | 330 | > 25
18 | Cn1cc(S(=O)(=O)NC2(C(F)(F)F)CCC2)c(F)c1C(=O)Nc1cc(F)nc(F)c1 [Compound 168, N-(2,6-difluoro-4-pyridyl)-3-fluoro-1-methyl-4-[[1-(trifluoromethyl)cyclobutyl]sulfamoyl]pyrrole-2-carboxamide] | 6 | > 25
19 | Cc1cc(NC(=O)c2c(Cl)c(S(=O)(=O)NC3(C)CC(F)(F)C3)cn2C)cc(F)n1 [Compound 163, 3-chloro-4-[(3,3-difluoro-1-methyl-cyclobutyl)sulfamoyl]-N-(2-fluoro-6-methyl-4-pyridyl)-1-methyl-pyrrole-2-carboxamide] | 20 | > 25
20 | Cn1cc(S(=O)(=O)NC2(C)CC(F)(F)C2)c(F)c1C(=O)Nc1ccnc(Br)c1 [Compound 117, N-(2-bromo-4-pyridyl)-4-[(3,3-difluoro-1-methyl-cyclobutyl)sulfamoyl]-3-fluoro-1-methyl-pyrrole-2-carboxamide] | 10 | > 25
21 | Cn1cc(S(=O)(=O)NC2(C(F)(F)F)CCC2)c(Cl)c1C(=O)Nc1ccnc(F)c1 [Compound 111, 3-chloro-N-(2-fluoro-4-pyridyl)-1-methyl-4-[[1-(trifluoromethyl)cyclobutyl]sulfamoyl]pyrrole-2-carboxamide] | 30 | > 25
22 | Cc1cc(NC(=O)c2c(F)c(S(=O)(=O)NC3(C(F)(F)F)CCC3)cn2C)cc(Br)n1 [Compound 164, N-(2-bromo-6-methyl-4-pyridyl)-3-fluoro-1-methyl-4-[[1-(trifluoromethyl)cyclobutyl]sulfamoyl]pyrrole-2-carboxamide] | 40 | > 25
23 | Cc1cc(NC(=O)c2c(F)c(S(=O)(=O)N[C@H](C)C(C)(F)F)cn2C)cc(Br)n1 [Compound 157, N-(2-bromo-6-methyl-4-pyridyl)-4-[[(1R)-2,2-difluoro-1-methyl-propyl]sulfamoyl]-3-fluoro-1-methyl-pyrrole-2-carboxamide] | 90 | > 25
24 | C[C@@H](NS(=O)(=O)c1cn(C)c(C(=O)Nc2ccnc(Br)c2F)c1F)C(F)(F)F [Compound 153, N-(2-bromo-3-fluoro-4-pyridyl)-3-fluoro-1-methyl-4-[[(1R)-2,2,2-trifluoro-1-methyl-ethyl]sulfamoyl]pyrrole-2-carboxamide] | 20 | > 25
25 | CC[C@@H](C)NS(=O)(=O)c1cn(C)c(C(=O)Nc2ccnc(Cl)c2)c1Cl [Compound 73, 3-chloro-N-(2-chloro-4-pyridyl)-1-methyl-[[(1R)-1-methylpropyl]-sulfamoyl]pyrrole-2-carboxamide] | 90 | 21.6
26 | C[C@@H](NS(=O)(=O)c1cn(C)c(C(=O)Nc2ccnc(Cl)c2)c1Cl)C(C)(F)F [Compound 94, 3-chloro-N-(2-chloro-4-pyridyl)-4-[[(1R)-2,2-difluoro-1-methyl-propyl]sulfamoyl]-1-methyl-pyrrole-2-carboxamide] | 30 | > 25
27 | C[C@@H](NS(=O)(=O)c1cn(C)c(C(=O)Nc2ccc(F)cn2)c1Cl)C(F)(F)F [Compound 51, 3-chloro-N-(5-fluoro-2-pyridyl)-1-methyl-4-[[(1R)-2,2,2-trifluoro-1-methyl-ethyl]sulfamoyl]pyrrole-2-carboxamide] | 600 | > 25
28 | C[C@H](NS(=O)(=O)c1cn(C)c(C(=O)Nc2ccnc(C#N)c2)c1F)C(C)(F)F [Compound 58, N-(2-cyano-4-pyridyl)-4-[[(1S)-2,2-difluoro-1-methyl-propyl]sulfamoyl]-3-fluoro-1-methyl-pyrrole-2-carboxamide] | 140 | > 25
29 | C[C@H](NS(=O)(=O)c1cn(C)c(C(=O)Nc2ccnc(C(F)(F)F)c2)c1F)C(C)(F)F [Compound 62, 4-[[(1S)-2,2-difluoro-1-methyl-propyl]sulfamoyl]-3-fluoro-1-methyl-N-[2-(trifluoromethyl)-4-pyridyl]pyrrole-2-carboxamide] | 190 | > 25
30 | CC[C@@H](NS(=O)(=O)c1cn(C)c(C(=O)Nc2ccnc(Cl)c2F)c1Cl)C(F)(F)F [Compound 112, 3-chloro-N-(2-chloro-3-fluoro-4-pyridyl)-1-methyl-[[(1R)-1-(trifluoromethyl)propyl]sulfamoyl]pyrrole-2-carboxamide] | 20 | > 25
